Key:
Format in all cases: physicochemical
[1] = Visual appearance on storage (Example 3)
Method: (§1) Each test material was stored between 2-8*C prior to placing on stability. Each material was sub-divided into 900 mg aliquots, transferred to brown opaque HDPE plastic bottles and flushed with Argon prior to sealing. Sufficient samples were provided for each time point as well as spares for each storage condition. The samples were placed in appropriate incubators previously commissioned at storage conditions 25° C./60% RH, 40° C./75% RH and 60° C.
The samples were stored for analysis according to the following table: […]

[2] = Water content by Karl Fisher analysis on storage (Example 3)
Method: Water content (% w/w) by Karl Fisher analysis
as §1
Water Content by Karl Fisher Analysis
Water content was determined in duplicate on an aliquot of equilibrated material (approximately 100 mg) using a Tritrino 720 KFS Titrator.

[3] = Colour of solution by visible spectrophotometry on storage (Example 3); conditions: 5% w/v solution in water
Method: Colour of solution by UV spectrophotometry.
as §1
Colour by Visible Spectrophotometry
A 5% w/v solution of test material was prepared in water and the absorbance measured at 420 nm in a 1 cm silica cell using a Unicam UV4 Visible/UV spectrophotometer.

[4] = Stability indicating HPLC assay and related substances on storage (Example 3)
Method: Assay (% w/w) and related substances determination
as §1
Testing Procedures Test for Identity Content and Impurities
Testing was performed in duplicate (2×25 mg) in accordance with a stability indicating HPLC assay method. The assay results were reported as M6G as is, M6G as the anhydrous, solvent free material and the anhydrous solvent free material corrected for the salt form using the relevant conversion factor.

## CN1CCC23c4c5ccc(O)c4OC2C(OC2OC(C(=O)O)C(O)C(O)C2O)C=CC3C1C5.CN1CCC23c4c5ccc(O)c4OC2C(OC2OC(C(=O)O)C(O)C(O)C2O)C=CC3C1C5.O=C(O)C=CC(=O)O (stereo not drawn) [Morphine-6-glucuronide fumarate]
[1]; 1 month, 25° C./60% RH
  Appearance: White crystalline powder
[1]; 1 month, 40° C./75% RH
  Appearance: Pale yellow crystalline powder
[1]; 1 month, 60° C.
  Appearance: Yellow crystalline powder
[1]; 3 months, 25° C./60% RH
  Appearance: Pale yellow crystalline powder
[1]; 3 months, 40° C./75% RH
  Appearance: Yellow crystalline powder
[1]; Initial
  Appearance: White crystalline powder
[2]; 1 month, 25° C./60% RH
  Moisture: 7.26 % w/w
[2]; 1 month, 40° C./75% RH
  Moisture: 7.94 % w/w
[2]; 1 month, 60° C.
  Moisture: 5.98 % w/w
[2]; 3 months, 25° C./60% RH
  Moisture: 8.00 % w/w
[2]; 3 months, 40° C./75% RH
  Moisture: 10.89 % w/w
[2]; Initial
  Moisture: 6.80 % w/w
[3]; 1 month, 25° C./60% RH
  Colour: 0.034 Abs@420 nm
[3]; 1 month, 40° C./75% RH
  Colour: 0.264 Abs@420 nm
[3]; 1 month, 60° C.
  Colour: 0.794 Abs@420 nm
[3]; 3 months, 25° C./60% RH
  Colour: 0.141 Abs@420 nm
[3]; 3 months, 40° C./75% RH
  Colour: 1.008 Abs@420 nm
[3]; Initial
  Colour: 0.016 Abs@420 nm
[4]; 1 month, 25° C./60% RH
  Known Related Substances HN33177: 0.80%
  Known Related Substances HN75083: 0.03%
  M6G Assay, Anhydrous basis: 88.23 % w/w
  M6G Assay, As is basis: 81.96 % w/w
  M6G Assay, Corrected for the salt form: 99.32 % w/w
  Total Known: 0.83%
  Total Related Substances: 0.91%
  Total Unknown: 0.08%
[4]; 1 month, 40° C./75% RH
  Known Related Substances HN33177: 0.70%
  Known Related Substances HN67003: 0.58%
  Known Related Substances HN75076: 0.03%
  Known Related Substances HN75083: 0.02%
  Known Related Substances Morphine: 0.10%
  M6G Assay, Anhydrous basis: 84.17 % w/w
  M6G Assay, As is basis: 77.62 % w/w
  M6G Assay, Corrected for the salt form: 94.76 % w/w
  Total Known: 1.43%
  Total Related Substances: 2.60%
  Total Unknown: 1.17%
[4]; 1 month, 60° C.
  Known Related Substances HN33177: 0.62%
  Known Related Substances HN67003: 0.97%
  Known Related Substances HN75076: 0.06%
  Known Related Substances HN75083: 0.02%
  Known Related Substances Morphine: 0.24%
  M6G Assay, Anhydrous basis: 82.11 % w/w
  M6G Assay, As is basis: 77.33 % w/w
  M6G Assay, Corrected for the salt form: 92.44 % w/w
  Total Known: 1.91%
  Total Related Substances: 3.85%
  Total Unknown: 1.94%
[4]; 3 months, 25° C./60% RH
  Known Related Substances HN33177: 0.75%
  Known Related Substances HN67003: 0.26%
  Known Related Substances HN75083: 0.10%
  Known Related Substances Morphine: 0.07%
  M6G Assay, Anhydrous basis: 87.15 % w/w
  M6G Assay, As is basis: 81.20 % w/w
  M6G Assay, Corrected for the salt form: 98.11 % w/w
  Total Known: 1.18%
  Total Related Substances: 1.90%
  Total Unknown: 0.72%
[4]; 3 months, 40° C./75% RH
  Known Related Substances HN33177: 0.57%
  Known Related Substances HN67003: 1.56%
  Known Related Substances HN75076: 0.40%
  Known Related Substances Morphine: 0.45%
  M6G Assay, Anhydrous basis: 79.38 % w/w
  M6G Assay, As is basis: 71.64 % w/w
  M6G Assay, Corrected for the salt form: 89.37 % w/w
  Total Known: 2.98%
  Total Related Substances: 9.07%
  Total Unknown: 6.09%
  drop in assay compared to the initial values: around 10%
[4]; Initial
  Known Related Substances HN33177: 0.77%
  Known Related Substances HN67003: 0.04%
  Known Related Substances HN75083: 0.05%
  M6G Assay, Anhydrous basis: 89.44 % w/w
  M6G Assay, As is basis: 84.11 % w/w
  M6G Assay, Corrected for the salt form: 100.71 % w/w
  Total Known: 0.86%
  Total Related Substances: 0.95%
  Total Unknown: 0.09%

— patent publication US20060166900A1, “Salt of morphine-6-glucuronide” (CeNeS Limited, priority 2002, published 2006)
